Assay results as given in ChEMBL document CHEMBL3797087, “Synthesis of novel triazole/isoxazole functionalized 7-(trifluoromethyl)pyrido[2,3-d]pyrimidine derivatives as promising anticancer and antibacterial agents” (2016).
Converted amounts (≈) assume the structure as drawn.

Key:
Type in all cases: functional
MDA-MB-231 = assay: Anticancer activity against human MDA-MB-231 cells after 48 hrs by SRB assay; conditions: MDA-MB-231, 48 h
[1] = Anticancer activity against human PANC1 cells after 48 hrs by SRB assay; conditions: PANC-1, 48 h
A549 = assay: Anticancer activity against human A549 cells after 48 hrs by SRB assay; conditions: A549, 48 h
HeLa = assay: Anticancer activity against human HeLa cells after 48 hrs by SRB assay
Bacillus licheniformis [2] = assay: Antibacterial activity against Bacillus licheniformis after 24 hrs by agar diffusion assay
Streptococcus pneumoniae [3] = assay: Antibacterial activity against Streptococcus pneumoniae after 24 hrs by agar diffusion assay
Staphylococcus aureus [4] = assay: Antibacterial activity against Staphylococcus aureus after 24 hrs by agar diffusion assay
Pseudomonas aeruginosa [5] = assay: Antibacterial activity against Pseudomonas aeruginosa after 24 hrs by agar diffusion assay
Escherichia coli [6] = assay: Antibacterial activity against Escherichia coli after 24 hrs by agar diffusion assay
Klebsiella pneumoniae [7] = assay: Antibacterial activity against Klebsiella pneumoniae after 24 hrs by agar diffusion assay
Escherichia coli [8] = assay: Antibacterial activity against Escherichia coli after 24 to 48 hrs
Klebsiella pneumoniae [9] = assay: Antibacterial activity against Klebsiella pneumoniae after 24 to 48 hrs
Pseudomonas aeruginosa [10] = assay: Antibacterial activity against Pseudomonas aeruginosa after 24 to 48 hrs
Bacillus licheniformis [11] = assay: Antibacterial activity against Bacillus licheniformis after 24 to 48 hrs
Streptococcus pneumoniae [12] = assay: Antibacterial activity against Streptococcus pneumoniae after 24 to 48 hrs
Staphylococcus aureus [13] = assay: Antibacterial activity against Staphylococcus aureus after 24 to 48 hrs

Structure (SMILES)	GI50 (MDA-MB-231) [µM]	GI50 (A549) [µM]	GI50 (HeLa) [µM]	MIC (Pseudomonas aeruginosa [10]) [mg/L]	MIC (Bacillus licheniformis [11]) [mg/L]	MIC (Streptococcus pneumoniae [12]) [mg/L]	MIC (Staphylococcus aureus [13]) [mg/L]	GI50 [1] [µM]	inhibition zone (IZ) (Bacillus licheniformis [2]) [mm]	inhibition zone (IZ) (Streptococcus pneumoniae [3]) [mm]	inhibition zone (IZ) (Staphylococcus aureus [4]) [mm]	inhibition zone (IZ) (Pseudomonas aeruginosa [5]) [mm]	inhibition zone (IZ) (Escherichia coli [6]) [mm]	inhibition zone (IZ) (Klebsiella pneumoniae [7]) [mm]	MIC (Escherichia coli [8]) [mg/L]	MIC (Klebsiella pneumoniae [9]) [mg/L]
CCc1nc2nc(C(F)(F)F)ccc2c(=O)n1Cc1cn(CCC(F)(F)C(F)(F)C(F)(F)C(F)(F)C(F)(F)C(F)(F)F)nn1	2.83	0.03	0.93	–	–	–	–	0.73	–	–	–	–	–	–	–	–
O=c1c2ccc(C(F)(F)F)nc2nc(-c2ccccc2)n1Cc1cn(-c2ccc([N+](=O)[O-])cc2)nn1	1.24	0.77	0.86	–	–	–	–	2.55	–	–	–	–	–	–	–	–
CCCCCCCCCCn1cc(COc2nc(-c3ccccc3)nc3nc(C(F)(F)F)ccc23)nn1	1.05	2.31	1.04	–	–	–	–	0.49	8	16	10	–	–	–	–	–
CCc1nc2nc(C(F)(F)F)ccc2c(=O)n1Cc1cn(CC(=O)Nc2ccccc2)nn1	1.7	5.26	0.86	–	–	–	–	0.32	–	–	–	–	–	–	–	–
CCCCCCCCCCn1cc(Cn2c(-c3ccco3)nc3nc(C(F)(F)F)ccc3c2=O)nn1	1.1	0.2	0.87	–	–	–	–	3.18	–	–	–	–	–	–	–	–
CCCCCCCCn1cc(Cn2c(CC)nc3nc(C(F)(F)F)ccc3c2=O)nn1	1.34	2.87	1.27	–	–	–	–	3.28	8	6	9	7	7	7	–	–
O=c1c2ccc(C(F)(F)F)nc2nc(-c2ccccc2)n1Cc1cn(CCC(F)(F)C(F)(F)C(F)(F)C(F)(F)C(F)(F)C(F)(F)F)nn1	9.89	0.52	0.87	–	–	–	–	2.95	–	–	–	–	–	–	–	–
O=c1c2ccc(C(F)(F)F)nc2nc(-c2ccccc2)n1Cc1cc(-c2cccc3ccccc23)no1	1.01	3.14	0.91	–	–	–	–	0.14	–	–	–	–	–	–	–	–
CCCCCCCCCCn1cc(Cn2c(CC)nc3nc(C(F)(F)F)ccc3c2=O)nn1	2.21	0.86	0.81	12.5 (≈ 26.9 µM)	12.5 (≈ 26.9 µM)	12.5 (≈ 26.9 µM)	12.5 (≈ 26.9 µM)	0.02	21	28	15	16	25	19	25 (≈ 53.8 µM)	25 (≈ 53.8 µM)
O=C(O)c1cn(C2CC2)c2cc(N3CCNCC3)c(F)cc2c1=O [CIPROFLOXACIN]	–	–	–	–	12.5 (≈ 37.7 µM)	12.5 (≈ 37.7 µM)	12.5 (≈ 37.7 µM)	–	24	23	25	25	–	22	12.5 (≈ 37.7 µM)	12.5 (≈ 37.7 µM)
CO[C@H]1/C=C/O[C@@]2(C)Oc3c(C)c(O)c4c(O)c(c(/C=N/N5CCN(C)CC5)c(O)c4c3C2=O)NC(=O)/C(C)=C\C=C\[C@H](C)[C@H](O)[C@@H](C)[C@@H](O)[C@@H](C)[C@H](OC(C)=O)[C@@H]1C [RIFAMPIN]	–	–	–	–	–	–	–	–	24	25	25	29	27	27	–	–

The next lines start with results.

GI50 (MDA-MB-231) [µM]	GI50 (A549) [µM]	GI50 (HeLa) [µM]	MIC (Pseudomonas aeruginosa [10]) [mg/L]	MIC (Bacillus licheniformis [11]) [mg/L]	MIC (Streptococcus pneumoniae [12]) [mg/L]	MIC (Staphylococcus aureus [13]) [mg/L]	Structure (SMILES)	GI50 [1] [µM]	inhibition zone (IZ) (Bacillus licheniformis [2]) [mm]	inhibition zone (IZ) (Streptococcus pneumoniae [3]) [mm]	inhibition zone (IZ) (Staphylococcus aureus [4]) [mm]	inhibition zone (IZ) (Pseudomonas aeruginosa [5]) [mm]	inhibition zone (IZ) (Escherichia coli [6]) [mm]	inhibition zone (IZ) (Klebsiella pneumoniae [7]) [mm]	MIC (Escherichia coli [8]) [mg/L]	MIC (Klebsiella pneumoniae [9]) [mg/L]
0.52	1.91	1.2	–	–	–	–	FC(F)(F)c1ccc2c(OCc3cn(CCC(F)(F)C(F)(F)C(F)(F)C(F)(F)C(F)(F)C(F)(F)F)nn3)nc(-c3ccccc3)nc2n1	2.99	–	–	–	–	–	–	–	–
0.14	0.3	0.89	–	–	–	–	O=c1c2ccc(C(F)(F)F)nc2ncn1Cc1cn(-c2ccc([N+](=O)[O-])cc2)nn1	1.89	–	–	–	–	–	–	–	–
0.65	0.14	0.89	–	–	–	–	O=C(Cn1cc(COc2nc(-c3ccccc3)nc3nc(C(F)(F)F)ccc23)nn1)Nc1ccccc1	4.5	–	–	–	–	–	–	–	–
0.71	3.81	1.24	–	–	–	–	O=c1c2ccc(C(F)(F)F)nc2ncn1Cc1cc(-c2ccc(Br)cc2)no1	1.16	–	–	–	–	–	–	–	–
0.87	1.09	0.84	–	–	–	–	O=c1c2ccc(C(F)(F)F)nc2ncn1Cc1cc(-c2ccc(Cl)cc2)no1	7.08	–	–	–	–	–	–	–	–
0.24	4.05	0.89	–	–	–	–	COc1cc(-n2cc(COc3nc(-c4ccccc4)nc4nc(C(F)(F)F)ccc34)nn2)cc(OC)c1OC	0.82	–	–	–	–	–	–	–	–
0.57	5.33	0.95	–	25 (≈ 51.6 µM)	12.5 (≈ 25.8 µM)	12.5 (≈ 25.8 µM)	CCCCCCCCn1cc(COc2nc(-c3ccccc3)nc3nc(C(F)(F)F)ccc23)nn1	2.66	21	26	22	–	8	–	–	–
0.042	0.08	0.063	–	–	–	–	COC(=O)Nc1nc2cc(C(=O)c3cccs3)ccc2[nH]1 [NOCODAZOLE]	0.029	–	–	–	–	–	–	–	–
